From patent US20260262643A1, “HERBICIDAL BENZOXAZINES” (FMC CORPORATION, priority 2022, published 2026)

What was measured:
[1] = tested on: galium; assay: Test C postemergence; assay type: in vivo, Galium aparine; conditions: 10 days
Procedure, shortened: (§1)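 Visual injury score, 0–100 (100 = complete control), taken 10 days after treatment relative to untreated controls. Pre: directed spray onto soil over sown seeds. Post: foliar spray at one- to two-leaf stage, 2–10 cm. Solvent/surfactant formulation; loam–sand soil; greenhouse.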

[2] = tested on: horseweed; assay: Test C postemergence; assay type: in vivo, Erigeron canadensis; conditions: 10 days
Procedure, shortened: as §1

[3] = tested on: pigweed, palmer; assay: Test C preemergence; assay type: in vivo, Amaranthus palmeri; conditions: 0 to 100 scale (0 no effect, 100 complete control); for Plant response rating, Pigweed, Palmer: Preemergence, 500 g ai/ha, visual rating after 10 days; for Pigweed, Palmer plant response rating: Test C, preemergence, 125 g ai/ha
Procedure, shortened: as §1

[4] = tested on: rice; assay: Test D flooded paddy test; assay type: in vivo, Oryza sativa; conditions: 250 g ai/ha, applied to paddy water, visual rating after 13 to 14 days, scale 0 to 100 (0 no effect, 100 complete control)
Procedure, shortened: (§2)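 Post-flood water application at the 2-leaf stage; 3 cm flood depth kept constant; visual control rating 0–100 after 13–14 days greenhouse growth.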

[5] = tested on: ryegrass, Italian; assay: Test C preemergence; assay type: in vivo, Lolium multiflorum; conditions: 0 to 100 scale (0 no effect, 100 complete control); for Plant response rating, Ryegrass, Italian: Preemergence, 500 g ai/ha, visual rating after 10 days; for Ryegrass, Italian plant response rating: Test C, preemergence, 125 g ai/ha
Procedure, shortened: as §1

[6] = tested on: ragweed; assay: Test C preemergence; assay type: in vivo, Ambrosia artemisiifolia; conditions: 0 to 100 scale (0 no effect, 100 complete control); for Plant response rating, Ragweed: Preemergence, 500 g ai/ha, visual rating after 10 days; for Ragweed plant response rating: Test C, preemergence, 125 g ai/ha
Procedure, shortened: as §1

[7] = tested on: sedge, umbrella; assay: Test D flooded paddy test; assay type: in vivo, Cyperus difformis; conditions: 250 g ai/ha, applied to paddy water, visual rating after 13 to 14 days, scale 0 to 100 (0 no effect, 100 complete control)
Procedure, shortened: as §2

[8] = tested on: corn; assay: Test C postemergence; assay type: in vivo, Zea mays; conditions: 10 days
Procedure, shortened: as §1

[9] = tested on: barnyardgrass; assay: Test D flooded paddy test; assay type: in vivo, Echinochloa crus-galli; conditions: 250 g ai/ha, applied to paddy water, visual rating after 13 to 14 days, scale 0 to 100 (0 no effect, 100 complete control)
Procedure, shortened: as §2

[10] = tested on: kochia; assay: Test C postemergence; assay type: in vivo, Bassia scoparia; conditions: 10 days
Procedure, shortened: as §1

[11] = tested on: wheat; assay: Test C preemergence; assay type: in vivo, Triticum aestivum; conditions: 0 to 100 scale (0 no effect, 100 complete control); for Plant response rating, Wheat: Preemergence, 500 g ai/ha, visual rating after 10 days; for Wheat plant response rating: Test C, preemergence, 125 g ai/ha
Procedure, shortened: as §1

[12] = tested on: barnyardgrass; assay: Test C postemergence; assay type: in vivo, Echinochloa crusgalli; conditions: 10 days
Procedure, shortened: as §1

[13] = tested on: oat, wild; assay: Test C postemergence; assay type: in vivo, Avena fatua; conditions: 10 days
Procedure, shortened: as §1

[14] = tested on: green foxtail; assay: Test C postemergence; assay type: in vivo, Setaria viridis; conditions: 10 days
Procedure, shortened: as §1

[15] = tested on: kochia; assay: Test C preemergence; assay type: in vivo, Bassia scoparia; conditions: 0 to 100 scale (0 no effect, 100 complete control); for Plant response rating, Kochia: Preemergence, 500 g ai/ha, visual rating after 10 days; for Kochia plant response rating: Test C, preemergence, 125 g ai/ha
Procedure, shortened: as §1

[16] = tested on: pigweed, palmer; assay: Test C postemergence; assay type: in vivo, Amaranthus palmeri; conditions: 10 days
Procedure, shortened: as §1

[17] = tested on: oat, wild; assay: Test C preemergence; assay type: in vivo, Avena fatua; conditions: 0 to 100 scale (0 no effect, 100 complete control); for Plant response rating, Oat, Wild: Preemergence, 500 g ai/ha, visual rating after 10 days; for Oat, Wild plant response rating: Test C, preemergence, 125 g ai/ha
Procedure, shortened: as §1

[18] = tested on: blackgrass; assay: Test C postemergence; assay type: in vivo, Alopecurus myosuroides; conditions: 10 days
Procedure, shortened: as §1

[19] = tested on: ryegrass, Italian; assay: Test C postemergence; assay type: in vivo, Lolium multiflorum; conditions: 10 days
Procedure, shortened: as §1

[20] = tested on: barnyardgrass; assay: Test C preemergence; assay type: in vivo, Echinochloa crusgalli; conditions: 0 to 100 scale (0 no effect, 100 complete control); for Barnyardgrass plant response rating: 125 g ai/ha, preemergence; for Plant response rating, Barnyardgrass: Preemergence, 500 g ai/ha, visual rating after 10 days
Procedure, shortened: as §1

[21] = tested on: soybean; assay: Test C postemergence; assay type: in vivo, Glycine max; conditions: 10 days
Procedure, shortened: as §1

[22] = tested on: ducksalad; assay: Test D flooded paddy test; assay type: in vivo, Heteranthera limosa; conditions: 250 g ai/ha, applied to paddy water, visual rating after 13 to 14 days, scale 0 to 100 (0 no effect, 100 complete control)
Procedure, shortened: as §2

[23] = tested on: ragweed; assay: Test C postemergence; assay type: in vivo, Ambrosia artemisiifolia; conditions: 10 days
Procedure, shortened: as §1

[24] = tested on: corn; assay: Test C preemergence; assay type: in vivo, Zea mays; conditions: 0 to 100 scale (0 no effect, 100 complete control); for Plant response rating, Corn: Preemergence, 500 g ai/ha, visual rating after 10 days; for Corn plant response rating: Test C, preemergence, 125 g ai/ha
Procedure, shortened: as §1

[25] = tested on: wheat; assay: Test C postemergence; assay type: in vivo, Triticum aestivum; conditions: 10 days
Procedure, shortened: as §1

[26] = tested on: green foxtail; assay: Test C preemergence; assay type: in vivo, Setaria viridis; conditions: 0 to 100 scale (0 no effect, 100 complete control); for Plant response rating, Foxtail, Green: Preemergence, 500 g ai/ha, visual rating after 10 days; for Foxtail, Green plant response rating: Test C, preemergence, 125 g ai/ha
Procedure, shortened: as §1

[27] = tested on: soybean; assay: Test C preemergence; assay type: in vivo, Glycine max; conditions: 0 to 100 scale (0 no effect, 100 complete control); for Plant response rating, Soybean: Preemergence, 500 g ai/ha, visual rating after 10 days; for Soybean plant response rating: Test C, preemergence, 125 g ai/ha
Procedure, shortened: as §1

[28] = tested on: blackgrass; assay: Test C preemergence; assay type: in vivo, Alopecurus myosuroides; conditions: 0 to 100 scale (0 no effect, 100 complete control); for Plant response rating, Blackgrass: Preemergence, 500 g ai/ha, visual rating after 10 days; for Blackgrass plant response rating: Test C, preemergence, 125 g ai/ha
Procedure, shortened: as §1

[29] = 125 g ai/ha, postemergence, 0 to 100 scale, 0 no effect, 100 complete control
[30] = Postemergence, 500 g ai/ha, visual 0 to 100 scale (0 no effect, 100 complete control)

CCc1c(F)cc(-n2cnc(C(C)C)n2)cc1C(=O)N1C[C@H](C)Oc2c(Cl)cccc21 [Compound 152]
Plant response rating, Galium [1, 29]: 100
Plant response rating, Galium [1, 30]: 100
Plant response rating, Horseweed [2, 29]: 0
Plant response rating, Horseweed [2, 30]: 0
Plant response rating, Pigweed, Palmer [3]: 90
Pigweed, Palmer plant response rating [3]: 90
Plant response rating, Rice (Flood) [4]: 0
Plant response rating, Ryegrass, Italian [5]: 90
Ryegrass, Italian plant response rating [5]: 70
Plant response rating, Ragweed [6]: 0
Ragweed plant response rating [6]: 0
Plant response rating, Sedge, Umbrella (Flood) [7]: 0
Plant response rating, Corn [8, 29]: 40
Plant response rating, Corn [8, 30]: 70
Plant response rating, Barnyardgrass (Flood) [9]: 0
Plant response rating, Kochia [10, 29]: 80
Plant response rating, Kochia [10, 30]: 80
Plant response rating, Wheat [11]: 40
Wheat plant response rating [11]: 20
Plant response rating, Barnyardgrass [12, 29]: 60
Plant response rating, Barnyardgrass [12, 30]: 90
Plant response rating, Oat, Wild [13, 29]: 0
Plant response rating, Oat, Wild [13, 30]: 30
Plant response rating, Foxtail, Green [14, 29]: 40
Plant response rating, Foxtail, Green [14, 30]: 90
Plant response rating, Kochia [15]: 90
Kochia plant response rating [15]: 40
Plant response rating, Pigweed, Palmer [16, 29]: 80
Plant response rating, Pigweed, Palmer [16, 30]: 90
Plant response rating, Oat, Wild [17]: 70
Oat, Wild plant response rating [17]: 60
Plant response rating, Blackgrass [18, 29]: 50
Plant response rating, Blackgrass [18, 30]: 70
Plant response rating, Ryegrass, Italian [19, 29]: 30
Plant response rating, Ryegrass, Italian [19, 30]: 60
Barnyardgrass plant response rating [20]: 70
Plant response rating, Barnyardgrass [20]: 90
Plant response rating, Soybean [21, 29]: 100
Plant response rating, Soybean [21, 30]: 100
Plant response rating, Ducksalad (Flood) [22]: 0
Plant response rating, Ragweed [23, 29]: 40
Plant response rating, Ragweed [23, 30]: 60
Plant response rating, Corn [24]: 50
Corn plant response rating [24]: 30
Plant response rating, Wheat [25, 29]: 20
Plant response rating, Wheat [25, 30]: 20
Plant response rating, Foxtail, Green [26]: 100
Foxtail, Green plant response rating [26]: 100
Plant response rating, Soybean [27]: 70
Soybean plant response rating [27]: 50
Plant response rating, Blackgrass [28]: 60
Blackgrass plant response rating [28]: 50

COC[C@H]1CN(C(=O)c2cc(-n3cnc(C(C)(C)C)n3)ccc2C)c2cccc(Cl)c2O1 [Compound 264]
Plant response rating, Galium [1, 29]: 100
Plant response rating, Galium [1, 30]: 100
Plant response rating, Horseweed [2, 29]: 20
Plant response rating, Horseweed [2, 30]: 60
Plant response rating, Pigweed, Palmer [3]: 100
Pigweed, Palmer plant response rating [3]: 100
Plant response rating, Rice (Flood) [4]: 10
Plant response rating, Ryegrass, Italian [5]: 90
Ryegrass, Italian plant response rating [5]: 90
Plant response rating, Ragweed [6]: 80
Ragweed plant response rating [6]: 60
Plant response rating, Sedge, Umbrella (Flood) [7]: 80
Plant response rating, Corn [8, 29]: 30
Plant response rating, Corn [8, 30]: 80
Plant response rating, Barnyardgrass (Flood) [9]: 35
Plant response rating, Kochia [10, 29]: 80
Plant response rating, Kochia [10, 30]: 100
Plant response rating, Wheat [11]: 60
Wheat plant response rating [11]: 0
Plant response rating, Barnyardgrass [12, 29]: 50
Plant response rating, Barnyardgrass [12, 30]: 90
Plant response rating, Oat, Wild [13, 29]: 10
Plant response rating, Oat, Wild [13, 30]: 50
Plant response rating, Foxtail, Green [14, 29]: 20
Plant response rating, Foxtail, Green [14, 30]: 90
Plant response rating, Kochia [15]: 100
Kochia plant response rating [15]: 90
Plant response rating, Pigweed, Palmer [16, 29]: 90
Plant response rating, Pigweed, Palmer [16, 30]: 90
Plant response rating, Oat, Wild [17]: 90
Oat, Wild plant response rating [17]: 90
Plant response rating, Blackgrass [18, 29]: 40
Plant response rating, Blackgrass [18, 30]: 60
Plant response rating, Ryegrass, Italian [19, 29]: 50
Plant response rating, Ryegrass, Italian [19, 30]: 90
Plant response rating, Barnyardgrass [20]: 100
Barnyardgrass plant response rating ([20]; Test C): 70
Plant response rating, Soybean [21, 29]: 100
Plant response rating, Soybean [21, 30]: 100
Plant response rating, Ducksalad (Flood) [22]: 75
Plant response rating, Ragweed [23, 29]: 80
Plant response rating, Ragweed [23, 30]: 90
Plant response rating, Corn [24]: 50
Corn plant response rating [24]: 30
Plant response rating, Wheat [25, 29]: 20
Plant response rating, Wheat [25, 30]: 30
Plant response rating, Foxtail, Green [26]: 100
Foxtail, Green plant response rating [26]: 100
Plant response rating, Soybean [27]: 80
Soybean plant response rating [27]: 90
Plant response rating, Blackgrass [28]: 80
Blackgrass plant response rating [28]: 40
